Test results published in ChEMBL document CHEMBL1201862, “PubChem BioAssay data set” (2004).
Activity calls are given as the source filed them.

Tests used:
[1] = alpha-synuclein stem-loop translation blockers – luminescence, H4 neuroglioblastoma cells, dose confirmation, confirmation (AID 2454); format: functional, cell-based;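 also: H4 neuroglioblastoma cells carrying an alpha-synuclein 5'UTR luciferase reporter; potency for inhibition of the luciferase signal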
[2] = system: Streptococcus sp. 'group A'; test: Streptococcus pyogenes SK(-)GAS viability under kanamycin – luminescence, BacTiterGlo, confirmation, counter-screen for streptokinase expression inhibitor project, dose response (AID 1900); format: functional, organism-based
[3] = target: T1, Streptokinase A (Streptococcus pyogenes serotype M1, UniProt P10520); test: viability-normalized secreted streptokinase activity reduction – plasminogen activation absorbance, OD405, dose response (AID 1914); format: functional, Streptococcus pyogenes M1 GAS;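 also: secreted streptokinase activity via plasminogen activation per viability signal from cell pellet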
T1 sequence (P10520 whole entry): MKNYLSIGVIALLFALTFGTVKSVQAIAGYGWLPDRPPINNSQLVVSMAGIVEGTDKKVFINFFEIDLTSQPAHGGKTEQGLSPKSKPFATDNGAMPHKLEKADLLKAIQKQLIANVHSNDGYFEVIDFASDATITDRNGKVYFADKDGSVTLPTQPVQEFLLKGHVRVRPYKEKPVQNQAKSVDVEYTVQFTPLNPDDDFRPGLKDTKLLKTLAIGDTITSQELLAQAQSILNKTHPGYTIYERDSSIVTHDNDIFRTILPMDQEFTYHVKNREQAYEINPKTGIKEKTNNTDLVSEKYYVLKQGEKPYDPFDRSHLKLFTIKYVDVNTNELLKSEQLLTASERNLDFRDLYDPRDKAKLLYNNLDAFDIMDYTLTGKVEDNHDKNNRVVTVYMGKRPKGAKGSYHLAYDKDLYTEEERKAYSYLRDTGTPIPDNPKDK

[4] = luciferase reporter signal suppression in cells – H4 neuroglioma cells, luminescence, dose response (AID 1990); format: functional, cell-based
[5] = target: T2, Estrogen receptor (Homo sapiens, UniProt P03372);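 also: potency for inhibiting coactivator peptide recruitment to the receptor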
T2 sequence (P03372 whole entry): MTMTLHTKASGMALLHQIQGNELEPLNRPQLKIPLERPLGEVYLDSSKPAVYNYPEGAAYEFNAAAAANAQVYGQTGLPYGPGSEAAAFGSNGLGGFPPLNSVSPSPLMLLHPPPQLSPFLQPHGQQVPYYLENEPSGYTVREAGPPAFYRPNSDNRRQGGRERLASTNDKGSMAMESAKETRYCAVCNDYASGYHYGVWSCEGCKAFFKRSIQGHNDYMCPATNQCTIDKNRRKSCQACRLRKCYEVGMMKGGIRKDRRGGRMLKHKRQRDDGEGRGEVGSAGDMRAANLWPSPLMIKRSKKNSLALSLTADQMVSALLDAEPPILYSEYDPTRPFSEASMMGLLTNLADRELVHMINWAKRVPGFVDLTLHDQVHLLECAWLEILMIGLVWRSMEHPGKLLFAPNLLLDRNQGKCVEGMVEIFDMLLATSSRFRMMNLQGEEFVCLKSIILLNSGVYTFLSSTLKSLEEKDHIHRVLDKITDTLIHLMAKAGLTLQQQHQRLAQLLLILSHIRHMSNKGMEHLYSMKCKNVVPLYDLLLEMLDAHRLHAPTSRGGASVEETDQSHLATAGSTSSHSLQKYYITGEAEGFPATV

[6] = cells; format: functional, cell-based
[7] = system: Streptococcus; test: GAS UMAA2166 growth inhibition – luminescence, BacTiterGlo, counter-screen for streptokinase expression inhibitor project, dose response (AID 1915); format: functional, organism-based;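 also: potency for reduction of bacterial viability or growth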
[8] = luciferase reporter signal reduction – luminescence, H4-C neuroglioblastoma cells, dose response (AID 2458); format: functional, cell-based;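 also: H4 neuroglioblastoma cells stably carrying a luciferase reporter gene fusion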
[9] = alpha-synuclein stem-loop luciferase translation blockers – H4 neuroglioma cells, luminescence, confirmation (AID 1988); format: functional, cell-based
[10] = target: NADPH oxidase 1 (Homo sapiens, UniProt Q9Y5S8); format: functional, cell-based;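 also: Cell-based assay with luminescence read-out, IC50 derived from inhibitor dose-response curves; intracellular ROS from endogenous NOX1 in intact HT29 colon cancer cells; potency of inhibitors that lower the ROS luminescence signal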
NADPH oxidase 1, sequence (Q9Y5S8 whole entry): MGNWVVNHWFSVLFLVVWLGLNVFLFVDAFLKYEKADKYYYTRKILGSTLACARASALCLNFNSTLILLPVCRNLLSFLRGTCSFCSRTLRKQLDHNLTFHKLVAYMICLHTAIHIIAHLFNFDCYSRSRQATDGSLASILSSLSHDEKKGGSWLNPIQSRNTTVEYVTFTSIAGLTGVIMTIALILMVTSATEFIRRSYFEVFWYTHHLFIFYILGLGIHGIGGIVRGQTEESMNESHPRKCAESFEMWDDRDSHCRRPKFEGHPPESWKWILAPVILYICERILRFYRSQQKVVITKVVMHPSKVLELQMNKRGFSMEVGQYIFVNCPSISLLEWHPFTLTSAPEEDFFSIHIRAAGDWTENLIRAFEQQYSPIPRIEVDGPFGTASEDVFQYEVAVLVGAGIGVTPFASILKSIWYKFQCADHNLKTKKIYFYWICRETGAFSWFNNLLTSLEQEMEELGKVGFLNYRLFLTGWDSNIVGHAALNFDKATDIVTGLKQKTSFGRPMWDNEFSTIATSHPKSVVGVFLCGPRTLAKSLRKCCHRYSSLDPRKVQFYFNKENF

[11] = target: G2/mitotic-specific cyclin-B1 (Homo sapiens, UniProt P14635); test: Counterscreen assay for inhibitors of Wee1 degradation: dose response cell-based assay to identify inhibitors of cyclin B degradation. [Related pubchem assays: 1410, 1321 ]; format: functional
G2/mitotic-specific cyclin-B1, sequence (P14635 whole entry): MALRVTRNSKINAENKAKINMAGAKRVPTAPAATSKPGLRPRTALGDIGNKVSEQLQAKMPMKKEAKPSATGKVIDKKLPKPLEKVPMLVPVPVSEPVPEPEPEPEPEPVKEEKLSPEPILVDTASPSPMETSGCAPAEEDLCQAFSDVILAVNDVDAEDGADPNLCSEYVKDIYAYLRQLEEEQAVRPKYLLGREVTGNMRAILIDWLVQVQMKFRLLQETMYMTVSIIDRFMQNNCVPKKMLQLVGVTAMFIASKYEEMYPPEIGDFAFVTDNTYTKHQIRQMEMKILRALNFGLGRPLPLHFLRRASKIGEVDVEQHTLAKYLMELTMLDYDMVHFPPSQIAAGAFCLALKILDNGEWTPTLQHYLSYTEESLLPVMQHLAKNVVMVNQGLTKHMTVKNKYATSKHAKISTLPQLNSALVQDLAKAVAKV

[12] = target: Wee1-like protein kinase (Homo sapiens, UniProt P30291); test: Dose Response Cell-based Assay for Inhibitors of Wee1 Degradation. [Related pubchem assays: 1410, 1321 ]; format: functional
Wee1-like protein kinase, sequence (P30291 whole entry): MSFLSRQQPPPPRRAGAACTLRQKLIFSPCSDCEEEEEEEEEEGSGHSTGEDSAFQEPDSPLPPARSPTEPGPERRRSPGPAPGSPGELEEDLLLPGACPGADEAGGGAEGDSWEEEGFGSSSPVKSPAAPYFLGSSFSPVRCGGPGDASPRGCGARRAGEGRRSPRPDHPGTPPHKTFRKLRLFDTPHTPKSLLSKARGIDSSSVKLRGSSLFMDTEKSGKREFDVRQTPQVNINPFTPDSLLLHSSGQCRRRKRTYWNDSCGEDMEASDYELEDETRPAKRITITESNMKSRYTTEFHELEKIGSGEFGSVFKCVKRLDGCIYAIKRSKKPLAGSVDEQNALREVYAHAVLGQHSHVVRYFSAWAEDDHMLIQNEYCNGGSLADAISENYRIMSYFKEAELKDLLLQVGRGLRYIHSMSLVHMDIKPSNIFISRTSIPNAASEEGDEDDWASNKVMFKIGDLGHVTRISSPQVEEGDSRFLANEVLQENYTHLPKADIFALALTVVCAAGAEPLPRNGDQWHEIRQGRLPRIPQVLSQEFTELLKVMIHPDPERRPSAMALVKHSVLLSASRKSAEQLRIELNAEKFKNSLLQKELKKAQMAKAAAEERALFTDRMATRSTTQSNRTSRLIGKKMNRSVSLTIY

[13] = mitochondrial function rescue without frataxin homolog – Friedreich's ataxia, plus single-dose screen, dose response (AID 1465); format: functional;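 also: yeast depleted of Yfh1p frataxin homolog grown on glycerol needing respiration; WST-1 tetrazolium dye reduction as measure of cellular dehydrogenase metabolic activity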
[14] = target: Mothers against decapentaplegic homolog 3 (Homo sapiens, UniProt P84022); test: inhibitors of SMAD-driven TGF-beta signaling – dose response (AID 715); format: functional
Mothers against decapentaplegic homolog 3, sequence (P84022 whole entry): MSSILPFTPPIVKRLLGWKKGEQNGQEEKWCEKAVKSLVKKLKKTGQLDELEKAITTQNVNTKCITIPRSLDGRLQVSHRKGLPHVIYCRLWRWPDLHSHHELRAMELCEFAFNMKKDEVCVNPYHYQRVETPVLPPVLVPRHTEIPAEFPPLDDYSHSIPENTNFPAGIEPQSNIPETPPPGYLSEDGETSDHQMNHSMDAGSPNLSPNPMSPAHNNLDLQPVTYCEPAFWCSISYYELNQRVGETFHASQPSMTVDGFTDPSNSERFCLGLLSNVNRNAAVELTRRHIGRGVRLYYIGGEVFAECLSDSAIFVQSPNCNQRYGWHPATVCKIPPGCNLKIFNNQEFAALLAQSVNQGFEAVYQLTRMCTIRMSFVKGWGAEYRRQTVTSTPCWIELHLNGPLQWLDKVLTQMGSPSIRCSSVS

[15] = target: Peroxisome proliferator-activated receptor gamma/Nuclear receptor coactivator 2 (Homo sapiens, UniProt P37231); format: functional;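 also: agonist potency for raising coactivator recruitment to the receptor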
Peroxisome proliferator-activated receptor gamma/Nuclear receptor coactivator 2, sequence (P37231 whole entry): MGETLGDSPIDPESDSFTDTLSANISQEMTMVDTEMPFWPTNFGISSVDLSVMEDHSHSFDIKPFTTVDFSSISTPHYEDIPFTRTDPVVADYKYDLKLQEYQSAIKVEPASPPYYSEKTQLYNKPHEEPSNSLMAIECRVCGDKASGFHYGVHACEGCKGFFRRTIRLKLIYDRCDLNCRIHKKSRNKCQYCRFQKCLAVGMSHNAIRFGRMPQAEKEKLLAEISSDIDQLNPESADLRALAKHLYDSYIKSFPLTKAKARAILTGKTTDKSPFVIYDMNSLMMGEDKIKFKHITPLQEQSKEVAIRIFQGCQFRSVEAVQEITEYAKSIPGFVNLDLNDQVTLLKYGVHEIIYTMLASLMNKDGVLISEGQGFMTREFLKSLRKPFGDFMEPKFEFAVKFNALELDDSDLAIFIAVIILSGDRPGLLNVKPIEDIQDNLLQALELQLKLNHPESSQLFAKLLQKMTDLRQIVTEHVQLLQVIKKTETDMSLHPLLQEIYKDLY
Peroxisome proliferator-activated receptor gamma/Nuclear receptor coactivator 2, sequence (Q15596 whole entry, further chain): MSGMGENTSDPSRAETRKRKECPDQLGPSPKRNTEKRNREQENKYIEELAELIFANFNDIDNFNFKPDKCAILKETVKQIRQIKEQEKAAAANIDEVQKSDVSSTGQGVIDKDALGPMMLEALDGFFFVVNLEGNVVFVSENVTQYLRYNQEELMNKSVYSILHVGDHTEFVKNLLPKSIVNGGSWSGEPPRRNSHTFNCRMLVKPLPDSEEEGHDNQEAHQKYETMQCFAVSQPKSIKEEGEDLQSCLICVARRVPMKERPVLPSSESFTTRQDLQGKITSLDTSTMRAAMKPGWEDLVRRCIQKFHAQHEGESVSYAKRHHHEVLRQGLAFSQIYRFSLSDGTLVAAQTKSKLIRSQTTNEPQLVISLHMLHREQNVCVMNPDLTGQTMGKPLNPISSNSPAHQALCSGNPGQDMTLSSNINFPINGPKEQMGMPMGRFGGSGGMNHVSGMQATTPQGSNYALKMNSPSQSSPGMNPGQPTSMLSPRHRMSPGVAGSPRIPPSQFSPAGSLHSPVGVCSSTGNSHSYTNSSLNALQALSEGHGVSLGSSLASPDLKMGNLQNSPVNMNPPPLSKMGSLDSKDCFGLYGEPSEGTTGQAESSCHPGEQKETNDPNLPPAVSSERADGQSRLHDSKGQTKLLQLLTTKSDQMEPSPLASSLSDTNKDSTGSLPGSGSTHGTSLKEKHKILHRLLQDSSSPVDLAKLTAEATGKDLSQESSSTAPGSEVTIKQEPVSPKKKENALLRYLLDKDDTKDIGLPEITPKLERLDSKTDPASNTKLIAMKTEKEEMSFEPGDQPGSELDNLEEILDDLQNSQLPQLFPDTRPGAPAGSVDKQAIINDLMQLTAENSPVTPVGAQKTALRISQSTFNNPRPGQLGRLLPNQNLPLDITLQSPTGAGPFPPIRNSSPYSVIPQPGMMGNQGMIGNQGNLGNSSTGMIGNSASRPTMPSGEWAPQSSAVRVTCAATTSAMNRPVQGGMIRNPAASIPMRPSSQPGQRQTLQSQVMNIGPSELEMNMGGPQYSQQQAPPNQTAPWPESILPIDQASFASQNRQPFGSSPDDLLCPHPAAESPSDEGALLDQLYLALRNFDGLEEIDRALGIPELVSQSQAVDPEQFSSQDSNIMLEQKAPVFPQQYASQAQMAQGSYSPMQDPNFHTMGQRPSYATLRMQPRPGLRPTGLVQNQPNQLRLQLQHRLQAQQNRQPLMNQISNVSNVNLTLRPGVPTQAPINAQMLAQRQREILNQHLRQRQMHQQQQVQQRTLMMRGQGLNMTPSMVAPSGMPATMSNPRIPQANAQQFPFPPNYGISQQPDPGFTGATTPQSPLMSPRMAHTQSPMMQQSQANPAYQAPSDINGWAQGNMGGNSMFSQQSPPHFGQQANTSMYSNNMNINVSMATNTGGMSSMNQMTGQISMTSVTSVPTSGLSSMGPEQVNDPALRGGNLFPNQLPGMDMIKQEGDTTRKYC

[16] = target: Peroxisome proliferator-activated receptor gamma/Nuclear receptor coactivator 1 (Homo sapiens, UniProt P37231); format: functional;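 also: agonist potency as compounds enhance coactivator SRC-1 recruitment to PPARgamma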
[17] = target: Peroxisome proliferator-activated receptor gamma/Nuclear receptor coactivator 3 (Homo sapiens, UniProt P37231); format: functional;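 also: agonist potency for raising coactivator recruitment to the receptor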
[18] = target: Epstein-Barr nuclear antigen 1 (Epstein-Barr virus (strain B95-8) (HHV-4) (Human herpesvirus 4), UniProt P03211); test: inhibition of EBV nuclear antigen 1 DNA binding – biochemical, fluorescence polarization, 1536-well, dose response (AID 2381); set-up: species or system human gammaherpesvirus 4;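 also: fluorescence polarization of a Cy5 DNA probe bound by EBNA-1 protein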
Epstein-Barr nuclear antigen 1, sequence (P03211 whole entry): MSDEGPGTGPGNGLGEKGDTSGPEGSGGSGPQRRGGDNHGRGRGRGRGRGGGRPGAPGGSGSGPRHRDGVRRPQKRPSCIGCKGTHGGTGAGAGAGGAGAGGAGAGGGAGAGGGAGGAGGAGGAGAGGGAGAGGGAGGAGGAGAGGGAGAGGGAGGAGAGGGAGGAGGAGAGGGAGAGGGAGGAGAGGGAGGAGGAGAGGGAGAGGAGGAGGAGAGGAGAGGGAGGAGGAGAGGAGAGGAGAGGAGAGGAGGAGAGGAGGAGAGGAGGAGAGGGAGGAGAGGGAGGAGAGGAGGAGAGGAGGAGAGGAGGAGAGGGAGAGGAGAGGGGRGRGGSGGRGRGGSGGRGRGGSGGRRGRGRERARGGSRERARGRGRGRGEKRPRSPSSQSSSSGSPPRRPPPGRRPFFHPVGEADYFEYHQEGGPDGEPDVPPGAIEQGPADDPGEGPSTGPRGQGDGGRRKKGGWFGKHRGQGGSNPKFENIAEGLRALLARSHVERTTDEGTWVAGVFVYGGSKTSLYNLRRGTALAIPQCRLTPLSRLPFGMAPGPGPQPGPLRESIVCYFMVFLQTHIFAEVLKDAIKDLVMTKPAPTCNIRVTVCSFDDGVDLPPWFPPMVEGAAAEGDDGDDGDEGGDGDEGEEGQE

[19] = target: Lytic switch protein BZLF1 (Epstein-Barr virus (strain B95-8) (HHV-4) (Human herpesvirus 4), UniProt P03206); test: inhibition of BZLF1 ZTA DNA binding – biochemical, fluorescence polarization, Epstein-Barr virus, 1536-well, counter-screen for EBNA-1 inhibitor project, dose response (AID 2377); set-up: species or system human gammaherpesvirus 4;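 also: fluorescence polarization of Cy5-labelled ZRE DNA probe bound by purified Zta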
Lytic switch protein BZLF1, sequence (P03206 whole entry): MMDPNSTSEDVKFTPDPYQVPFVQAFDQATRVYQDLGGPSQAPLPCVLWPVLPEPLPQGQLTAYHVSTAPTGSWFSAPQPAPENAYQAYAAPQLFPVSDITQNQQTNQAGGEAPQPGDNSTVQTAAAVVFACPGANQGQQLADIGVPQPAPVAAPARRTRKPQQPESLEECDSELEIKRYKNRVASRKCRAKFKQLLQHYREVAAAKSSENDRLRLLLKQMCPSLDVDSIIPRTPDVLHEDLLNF

[20] = M. tuberculosis H37Rv growth inhibitors, H37Rv strain (AID 1626); format: functional
[21] = target: T3, Short transient receptor potential channel 4 (Mus musculus, UniProt Q9QUQ5); test: calcium entry via TRPC4 opening agents – cell-based, HEK293 TRPC4/mu-opioid, Fluo-4 calcium, dose response (AID 434937); format: functional
T3 sequence (Q9QUQ5 whole entry): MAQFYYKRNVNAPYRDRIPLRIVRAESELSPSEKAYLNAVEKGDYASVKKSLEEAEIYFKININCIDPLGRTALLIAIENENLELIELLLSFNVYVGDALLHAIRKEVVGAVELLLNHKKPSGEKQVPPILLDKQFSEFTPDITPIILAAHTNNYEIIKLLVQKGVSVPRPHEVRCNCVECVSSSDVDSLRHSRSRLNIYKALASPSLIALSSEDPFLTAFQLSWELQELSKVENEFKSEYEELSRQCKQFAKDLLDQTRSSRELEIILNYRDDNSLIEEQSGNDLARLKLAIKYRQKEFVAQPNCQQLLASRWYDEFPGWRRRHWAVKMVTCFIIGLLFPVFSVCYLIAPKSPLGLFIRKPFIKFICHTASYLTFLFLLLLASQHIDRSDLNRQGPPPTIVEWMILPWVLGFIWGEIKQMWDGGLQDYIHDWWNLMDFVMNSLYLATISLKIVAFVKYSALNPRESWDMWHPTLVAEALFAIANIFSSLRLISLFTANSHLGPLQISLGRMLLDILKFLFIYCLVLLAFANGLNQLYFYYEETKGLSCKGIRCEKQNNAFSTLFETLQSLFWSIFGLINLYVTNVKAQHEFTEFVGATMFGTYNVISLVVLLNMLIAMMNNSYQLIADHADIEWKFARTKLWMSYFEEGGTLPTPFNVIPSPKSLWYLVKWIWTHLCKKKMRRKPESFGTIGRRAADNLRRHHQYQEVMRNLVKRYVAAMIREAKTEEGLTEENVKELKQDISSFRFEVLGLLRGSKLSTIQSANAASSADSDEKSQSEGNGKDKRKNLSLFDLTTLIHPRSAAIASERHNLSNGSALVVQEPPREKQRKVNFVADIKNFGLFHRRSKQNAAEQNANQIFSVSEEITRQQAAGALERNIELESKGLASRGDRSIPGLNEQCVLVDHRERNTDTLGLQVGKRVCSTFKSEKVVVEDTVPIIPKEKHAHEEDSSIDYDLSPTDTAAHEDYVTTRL

[22] = target: Troponin, cardiac muscle (Homo sapiens, UniProt P19429+P45379+P63316); test: Fluorescence-based biochemical high throughput dose response assay for activators of the calcium sensitivity of cardiac Regulated Thin Filaments (RTF). [Related pubchem assays (depositor defined):AID493008, AID493018, AID504382, AID504383]; format: protein-complex assay

## CN1Cc2cc(C(=O)c3cc(Cl)cc(CSc4ncccn4)c3O)cnc2NC1=O
[1]
  EC50: 0.799 µM (active)
[2]
  EC50: 13.8 µM (active)
[3]
  EC50: > 150 µM (not active)
[4]
  EC50: < 0.1 µM (active)
[5]
  IC50: > 50 µM (not active)
[6]
  EC50: 0.812 µM (active)
[7]
  EC50: > 150 µM (not active)
[8]
  EC50: 0.449 µM (active)
[9]
  EC50: < 0.1 µM (active)

## COc1ccc(-c2nc(-c3ccccc3)c(-c3ccccc3)[nH]2)cc1O
[10]
  IC50: > 17 µM (not active)

## CCN(CC)c1ccc(/C=N/NC(=O)c2ccco2)cc1
[11]
  EC50: > 49.7 µM (not active)
[12]
  EC50: > 49.7 µM (not active)

## Cn1cccc1/C=C1/SC(=S)N(CC(=O)O)C1=O
[13]
  EC50: > 100 µM (active)

## CCCCOC(=O)CSc1nc(N)c(C#N)c(-c2ccc(OCC)cc2)c1C#N
[14]
  IC50: 11 µM (active)
[15]
  EC50: 9.42 µM (active)
[16]
  EC50: 11.2 µM (not active)
[17]
  EC50: > 79.4 µM (not active)

## COc1cc(NC(=O)c2ccc(Br)cc2)c(OC)cc1NC(=O)c1ccccc1
[18]
  IC50: 15.4 µM (not active)
[19]
  IC50: > 111 µM (not active)

## CC(C)(C)C(=O)/C=c1\s/c(=C\c2ccc(-c3ccc([N+](=O)[O-])cc3)o2)c(=O)n1CC(=O)NC(N)=O
[20]
  IC50: > 100 µM (active)
[21]
  EC50: 5.31 µM (active)
[22]
  EC50: 0.565 µM (active)
